Results: ChEMBL document CHEMBL1201862, “PubChem BioAssay data set” (2004)
Activity calls are given as the source filed them.

Experiments:
[1] = biological target: T1, Carboxy-terminal domain RNA polymerase II polypeptide A small phosphatase 1 (Homo sapiens, UniProt Q9GZU7); assay: CTDSP1 inhibitors, concentration-response, biochemical, absorbance readout, ultra-high-throughput screen actives (AID 540297); format: functional
T1 sequence (Q9GZU7 whole entry): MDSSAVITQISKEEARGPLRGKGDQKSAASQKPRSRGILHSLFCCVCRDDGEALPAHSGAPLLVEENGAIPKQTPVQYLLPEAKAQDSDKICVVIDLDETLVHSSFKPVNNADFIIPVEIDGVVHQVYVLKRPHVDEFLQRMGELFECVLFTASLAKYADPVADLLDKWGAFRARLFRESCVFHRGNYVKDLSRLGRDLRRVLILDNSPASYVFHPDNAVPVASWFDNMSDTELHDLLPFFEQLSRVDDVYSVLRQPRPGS

[2] = biological target: T2, Tyrosine-protein phosphatase non-receptor type 11 (Homo sapiens, UniProt Q06124); assay: PTPN11 enzyme inhibitors – biochemical, selectivity assay for STEP inhibitor project, dose response (AID 602367); format: functional; conditions: read-out: IC50_Mean
T2 sequence (Q06124 whole entry): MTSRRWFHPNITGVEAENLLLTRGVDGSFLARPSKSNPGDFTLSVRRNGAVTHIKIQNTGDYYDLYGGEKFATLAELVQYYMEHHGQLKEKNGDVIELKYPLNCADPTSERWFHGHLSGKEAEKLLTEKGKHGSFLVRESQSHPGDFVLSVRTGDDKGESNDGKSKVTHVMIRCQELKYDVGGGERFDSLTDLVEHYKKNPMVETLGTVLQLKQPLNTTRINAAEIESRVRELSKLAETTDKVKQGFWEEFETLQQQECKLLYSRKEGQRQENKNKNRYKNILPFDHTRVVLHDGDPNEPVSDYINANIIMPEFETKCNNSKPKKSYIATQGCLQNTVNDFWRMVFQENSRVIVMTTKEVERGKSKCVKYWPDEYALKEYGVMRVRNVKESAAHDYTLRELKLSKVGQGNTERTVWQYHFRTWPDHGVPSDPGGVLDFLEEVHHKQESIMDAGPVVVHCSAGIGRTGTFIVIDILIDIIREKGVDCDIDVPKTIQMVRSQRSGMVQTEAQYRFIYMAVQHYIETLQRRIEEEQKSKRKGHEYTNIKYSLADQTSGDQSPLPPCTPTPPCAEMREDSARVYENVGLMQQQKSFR

[3] = biological target: T3, Tyrosine-protein phosphatase non-receptor type 5 (Homo sapiens, UniProt P54829); assay: PTPN5 enzyme inhibition – biochemical, fluorescence intensity, uHTS hits, confirmation (AID 602372); format: functional; conditions: read-out: IC50_Mean
T3 sequence (P54829 whole entry): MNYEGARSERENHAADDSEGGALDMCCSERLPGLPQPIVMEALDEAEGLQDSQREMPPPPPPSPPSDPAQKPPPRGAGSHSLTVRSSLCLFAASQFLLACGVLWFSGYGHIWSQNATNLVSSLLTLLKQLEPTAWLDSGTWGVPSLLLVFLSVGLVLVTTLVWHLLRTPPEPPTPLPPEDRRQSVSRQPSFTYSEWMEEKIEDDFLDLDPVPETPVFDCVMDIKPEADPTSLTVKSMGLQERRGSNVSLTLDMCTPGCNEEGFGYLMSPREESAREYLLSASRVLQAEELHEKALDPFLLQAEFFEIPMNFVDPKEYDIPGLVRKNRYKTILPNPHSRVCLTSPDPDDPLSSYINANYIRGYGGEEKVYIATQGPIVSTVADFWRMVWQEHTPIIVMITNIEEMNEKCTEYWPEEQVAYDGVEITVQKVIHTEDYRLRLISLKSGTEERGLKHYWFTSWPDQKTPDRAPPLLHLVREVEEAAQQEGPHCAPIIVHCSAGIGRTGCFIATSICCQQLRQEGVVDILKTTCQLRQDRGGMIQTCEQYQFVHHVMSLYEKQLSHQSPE

[4] = biological target: Dual specificity protein phosphatase 3 (Homo sapiens, UniProt P51452); assay: VHR phosphatase inhibition, dose response, selectivity assay for STEP inhibitor project, biochemical (AID 602374); format: functional; conditions: read-out: IC50_Mean
[5] = biological target: T4, Tyrosine-protein phosphatase non-receptor type 22 (Homo sapiens, UniProt Q9Y2R2); assay: lymphoid phosphatase LYP inhibitors – biochemical, selectivity assay for STEP inhibitor project, dose response (AID 624241); format: functional
T4 sequence (Q9Y2R2 whole entry): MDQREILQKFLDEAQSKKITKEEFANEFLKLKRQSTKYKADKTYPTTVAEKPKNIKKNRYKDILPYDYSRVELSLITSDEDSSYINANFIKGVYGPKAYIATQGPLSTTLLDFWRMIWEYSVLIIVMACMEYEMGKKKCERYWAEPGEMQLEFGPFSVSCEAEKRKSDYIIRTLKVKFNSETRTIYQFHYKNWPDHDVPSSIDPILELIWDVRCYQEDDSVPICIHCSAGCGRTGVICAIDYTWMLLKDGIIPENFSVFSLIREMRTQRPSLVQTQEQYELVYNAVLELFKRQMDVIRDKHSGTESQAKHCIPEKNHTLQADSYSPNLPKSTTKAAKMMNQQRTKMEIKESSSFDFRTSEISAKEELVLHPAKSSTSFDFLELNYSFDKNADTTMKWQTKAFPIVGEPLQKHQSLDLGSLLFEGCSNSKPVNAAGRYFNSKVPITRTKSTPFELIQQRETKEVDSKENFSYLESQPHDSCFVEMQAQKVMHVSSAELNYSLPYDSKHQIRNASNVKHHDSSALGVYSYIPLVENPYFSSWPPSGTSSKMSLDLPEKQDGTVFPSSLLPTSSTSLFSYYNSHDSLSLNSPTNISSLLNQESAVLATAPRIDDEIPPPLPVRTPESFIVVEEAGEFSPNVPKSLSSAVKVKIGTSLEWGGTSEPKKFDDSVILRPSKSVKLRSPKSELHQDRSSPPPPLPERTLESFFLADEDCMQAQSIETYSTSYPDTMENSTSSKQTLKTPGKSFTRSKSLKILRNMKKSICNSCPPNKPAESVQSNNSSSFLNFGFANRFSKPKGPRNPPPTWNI

Leucine aminopeptidase = biological target: T5, Leucine aminopeptidase (Plasmodium falciparum 3D7, UniProt Q8IL11); assay: P. falciparum M17LAP inhibitors, primary screen, biochemical, fluorogenic H-Leu-NHMec substrate, 1536-well (AID 1619); format: functional
T5 sequence (Q8IL11 whole entry): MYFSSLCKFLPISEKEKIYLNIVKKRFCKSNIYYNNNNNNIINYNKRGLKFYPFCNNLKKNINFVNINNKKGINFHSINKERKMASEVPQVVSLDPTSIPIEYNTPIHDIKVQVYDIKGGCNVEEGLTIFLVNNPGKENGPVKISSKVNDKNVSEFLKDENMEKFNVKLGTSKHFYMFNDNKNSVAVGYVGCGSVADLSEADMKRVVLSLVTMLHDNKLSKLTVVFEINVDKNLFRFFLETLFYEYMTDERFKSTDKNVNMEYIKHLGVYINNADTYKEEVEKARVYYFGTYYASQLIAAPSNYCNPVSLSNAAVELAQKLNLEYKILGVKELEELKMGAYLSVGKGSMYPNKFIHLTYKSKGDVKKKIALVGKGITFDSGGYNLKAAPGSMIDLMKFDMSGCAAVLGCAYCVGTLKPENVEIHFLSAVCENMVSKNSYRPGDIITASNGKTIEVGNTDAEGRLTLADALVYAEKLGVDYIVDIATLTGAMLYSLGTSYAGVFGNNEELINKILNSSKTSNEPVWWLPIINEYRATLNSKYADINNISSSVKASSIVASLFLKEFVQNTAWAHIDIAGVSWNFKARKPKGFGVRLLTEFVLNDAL

[6] = biological target: T6, RNA-binding protein pos-1 (Caenorhabditis elegans, UniProt G5EF15); assay: disruptors of C. elegans POS-1 RNA interaction – biochemical, fluorescence polarization, dose response (AID 1964);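 note: purified POS-1 fused to maltose binding protein made in E. coli; potency of compounds blocking POS-1 binding to fluorescent RNA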
T6 sequence (G5EF15 whole entry): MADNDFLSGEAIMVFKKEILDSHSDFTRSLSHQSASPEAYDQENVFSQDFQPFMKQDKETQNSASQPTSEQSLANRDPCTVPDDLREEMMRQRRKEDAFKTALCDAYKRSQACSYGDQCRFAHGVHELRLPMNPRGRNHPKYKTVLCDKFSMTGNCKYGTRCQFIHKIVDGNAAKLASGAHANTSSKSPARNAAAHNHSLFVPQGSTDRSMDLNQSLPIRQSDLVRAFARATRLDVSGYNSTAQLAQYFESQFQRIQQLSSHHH

[7] = biological target: T7, Zinc finger protein mex-5 (Caenorhabditis elegans, UniProt Q9XUB2); assay: potency of MEX-5 RNA-binding blockers – biochemical, C. elegans, fluorescence polarization, dose response (AID 1960)
T7 sequence (Q9XUB2 whole entry): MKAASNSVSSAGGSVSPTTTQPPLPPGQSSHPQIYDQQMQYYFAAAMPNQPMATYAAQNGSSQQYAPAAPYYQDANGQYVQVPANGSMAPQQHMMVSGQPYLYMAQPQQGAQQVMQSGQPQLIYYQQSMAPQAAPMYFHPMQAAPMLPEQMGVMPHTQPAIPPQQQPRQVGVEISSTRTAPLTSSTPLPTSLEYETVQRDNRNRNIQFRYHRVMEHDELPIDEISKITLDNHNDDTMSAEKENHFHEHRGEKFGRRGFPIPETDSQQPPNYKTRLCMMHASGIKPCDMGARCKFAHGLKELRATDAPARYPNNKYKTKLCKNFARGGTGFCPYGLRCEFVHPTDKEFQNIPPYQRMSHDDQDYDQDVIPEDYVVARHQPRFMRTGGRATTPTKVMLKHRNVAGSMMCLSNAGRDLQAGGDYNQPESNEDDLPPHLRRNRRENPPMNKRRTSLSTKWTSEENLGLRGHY

ORF 73 = ORF 73 (Human herpesvirus 8, UniProt O40947); assay: KSHV LANA DNA-binding disruption – biochemical, fluorescence polarization, cherry-picked samples, dose response (AID 504725); design: species or system Human gammaherpesvirus 8;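 note: fluorescence polarization of a labeled DNA duplex reporting LANA DNA binding; potency is for inhibitors that block LANA binding to the DNA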
[8] = biological target: T8, Protein disulfide-isomerase (Homo sapiens, UniProt P07237); assay: inhibition of PDI-driven insulin aggregation – biochemical, turbidity, absorbance, cherry-picked samples, dose response (AID 602350); format: functional
[9] = biological target: T8, Protein disulfide-isomerase; assay: inhibition of PDI-mediated insulin reduction – biochemical, turbidity, absorbance, cherry-picked samples, set 2, dose response (AID 624274); format: functional
[10] = biological target: T9, Histone-lysine N-methyltransferase NSD2 (Homo sapiens, UniProt O96028); format: biochemical
T9 sequence (O96028 whole entry): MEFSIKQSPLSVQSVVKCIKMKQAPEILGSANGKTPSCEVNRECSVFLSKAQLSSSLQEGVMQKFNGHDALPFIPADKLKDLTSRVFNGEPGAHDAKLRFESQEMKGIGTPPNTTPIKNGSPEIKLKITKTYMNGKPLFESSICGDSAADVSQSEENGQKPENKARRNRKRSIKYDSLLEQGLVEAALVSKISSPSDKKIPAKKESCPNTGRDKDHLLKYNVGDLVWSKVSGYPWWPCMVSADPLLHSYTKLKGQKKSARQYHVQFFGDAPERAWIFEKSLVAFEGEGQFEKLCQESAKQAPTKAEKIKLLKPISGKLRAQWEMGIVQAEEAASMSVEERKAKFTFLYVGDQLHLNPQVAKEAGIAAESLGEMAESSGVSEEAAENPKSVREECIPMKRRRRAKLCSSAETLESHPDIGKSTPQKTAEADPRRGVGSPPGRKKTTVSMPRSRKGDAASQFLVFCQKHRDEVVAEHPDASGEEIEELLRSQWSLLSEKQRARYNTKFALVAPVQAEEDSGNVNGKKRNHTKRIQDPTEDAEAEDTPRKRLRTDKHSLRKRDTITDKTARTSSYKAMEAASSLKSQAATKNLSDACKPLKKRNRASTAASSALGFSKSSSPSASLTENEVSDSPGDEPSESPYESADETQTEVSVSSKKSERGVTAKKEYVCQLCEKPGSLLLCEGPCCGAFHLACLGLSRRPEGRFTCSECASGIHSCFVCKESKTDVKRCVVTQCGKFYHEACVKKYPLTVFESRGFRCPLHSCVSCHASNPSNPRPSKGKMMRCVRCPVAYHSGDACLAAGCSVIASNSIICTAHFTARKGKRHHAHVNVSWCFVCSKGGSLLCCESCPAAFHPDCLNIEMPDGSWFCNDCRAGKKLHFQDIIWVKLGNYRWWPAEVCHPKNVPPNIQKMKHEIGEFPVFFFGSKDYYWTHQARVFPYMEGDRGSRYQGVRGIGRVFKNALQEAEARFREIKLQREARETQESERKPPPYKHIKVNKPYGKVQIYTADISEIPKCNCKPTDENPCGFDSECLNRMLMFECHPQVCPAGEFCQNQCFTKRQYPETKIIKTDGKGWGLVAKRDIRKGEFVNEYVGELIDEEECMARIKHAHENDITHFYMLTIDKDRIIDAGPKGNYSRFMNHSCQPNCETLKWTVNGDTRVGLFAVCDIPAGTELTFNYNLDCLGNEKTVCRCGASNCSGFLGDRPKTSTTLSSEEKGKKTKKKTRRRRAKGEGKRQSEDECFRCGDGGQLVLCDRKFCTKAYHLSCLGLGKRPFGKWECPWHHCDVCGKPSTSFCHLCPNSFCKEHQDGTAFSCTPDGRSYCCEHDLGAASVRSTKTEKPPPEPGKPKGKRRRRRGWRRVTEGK

T8 sequence (P07237 whole entry): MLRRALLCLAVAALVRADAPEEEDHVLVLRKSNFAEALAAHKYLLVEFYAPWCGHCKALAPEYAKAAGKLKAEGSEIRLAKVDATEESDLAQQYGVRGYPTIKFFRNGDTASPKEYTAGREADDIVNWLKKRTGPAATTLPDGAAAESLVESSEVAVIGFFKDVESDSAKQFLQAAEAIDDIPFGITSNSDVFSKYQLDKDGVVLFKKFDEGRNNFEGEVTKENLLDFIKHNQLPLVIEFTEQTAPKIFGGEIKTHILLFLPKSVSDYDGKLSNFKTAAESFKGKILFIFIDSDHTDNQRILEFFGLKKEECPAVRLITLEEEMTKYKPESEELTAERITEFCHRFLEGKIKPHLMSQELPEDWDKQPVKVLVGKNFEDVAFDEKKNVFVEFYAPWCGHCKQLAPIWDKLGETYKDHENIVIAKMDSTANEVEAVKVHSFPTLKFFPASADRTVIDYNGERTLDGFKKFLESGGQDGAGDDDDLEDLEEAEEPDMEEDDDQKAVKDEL
ORF 73, sequence (O40947 whole entry): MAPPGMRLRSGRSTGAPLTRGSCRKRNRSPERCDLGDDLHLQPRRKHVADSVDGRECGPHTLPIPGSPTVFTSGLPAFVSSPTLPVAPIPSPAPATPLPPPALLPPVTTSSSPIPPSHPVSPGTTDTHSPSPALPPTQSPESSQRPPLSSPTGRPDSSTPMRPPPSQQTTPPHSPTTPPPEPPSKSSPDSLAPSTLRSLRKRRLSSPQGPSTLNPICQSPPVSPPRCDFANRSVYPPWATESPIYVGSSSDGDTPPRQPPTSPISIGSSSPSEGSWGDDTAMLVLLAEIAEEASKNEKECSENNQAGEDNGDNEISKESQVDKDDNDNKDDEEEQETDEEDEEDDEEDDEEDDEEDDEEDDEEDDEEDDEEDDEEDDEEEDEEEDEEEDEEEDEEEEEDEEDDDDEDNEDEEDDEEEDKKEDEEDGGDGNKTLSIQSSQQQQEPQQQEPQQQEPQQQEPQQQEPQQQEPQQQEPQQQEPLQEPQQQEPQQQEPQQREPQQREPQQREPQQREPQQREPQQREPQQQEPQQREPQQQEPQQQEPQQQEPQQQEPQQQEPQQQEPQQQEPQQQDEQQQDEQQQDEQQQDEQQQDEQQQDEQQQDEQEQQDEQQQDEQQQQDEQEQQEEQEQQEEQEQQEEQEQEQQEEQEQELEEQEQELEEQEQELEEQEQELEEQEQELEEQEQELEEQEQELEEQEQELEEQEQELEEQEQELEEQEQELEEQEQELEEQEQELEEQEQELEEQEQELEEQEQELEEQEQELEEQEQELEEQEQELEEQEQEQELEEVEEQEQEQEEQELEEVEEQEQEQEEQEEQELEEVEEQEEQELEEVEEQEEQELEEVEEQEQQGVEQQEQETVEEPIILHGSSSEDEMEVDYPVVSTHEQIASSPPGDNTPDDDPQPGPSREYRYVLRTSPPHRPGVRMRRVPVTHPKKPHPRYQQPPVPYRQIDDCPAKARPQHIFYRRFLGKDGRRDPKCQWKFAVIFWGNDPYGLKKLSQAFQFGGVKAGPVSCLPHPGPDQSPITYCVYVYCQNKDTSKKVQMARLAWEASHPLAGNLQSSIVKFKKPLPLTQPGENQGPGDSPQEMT
Dual specificity protein phosphatase 3, sequence (P51452 whole entry): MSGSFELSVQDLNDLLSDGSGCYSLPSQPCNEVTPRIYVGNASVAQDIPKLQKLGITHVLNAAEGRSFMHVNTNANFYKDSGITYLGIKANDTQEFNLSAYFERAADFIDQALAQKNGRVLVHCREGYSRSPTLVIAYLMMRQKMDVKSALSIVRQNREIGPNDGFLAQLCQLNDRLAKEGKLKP

COc1ccc2cc3c(N)nn(C(=O)c4cccc(F)c4)c3nc2c1
inactive: IC50 [5] 60.2 µM
active: IC50 [1] 8.49 µM | IC50 [2] 5.27 µM | IC50 [3] 16.9 µM | IC50 [4] 4.31 µM

O=C(O)CCCCCn1c(SCC(=O)c2ccc(O)c(O)c2)nc2ccsc2c1=O
active: IC50 (Leucine aminopeptidase) 12.8 µM | EC50 [6] 270 µM | EC50 [7] 61.6 µM | AC50 (ORF 73) 2.89 µM | AC50 [8] < 0.009 µM | AC50 [9] 0.009 µM | AC50 [10] 7.35 µM
